Counter-ions that a name gives are not always drawn. Like-named read-outs stand apart in the source and are kept apart here.
Tested on: Staphylococcus aureus cultures
Assay: Modified Bauer-Kirby Disc Susceptibility Test (Example 11)
Format: cell-based
Set-up: zone of inhibition: dose or concentration left out as unconfirmed
Settings: for zone of inhibition: Staphylococcus aureus; for Change 37°-30°: 30 mg Disc
Experimental: This example exemplifies the antibiotic activity of 7-[2'-(3"-chloro-4"-fluorophenylthio)acetamido]cephalosporanic acid, a water soluble compound, described in Example 8, against various Staphylococcus aureus cultures, in a modified Bauer-Kirby Disc Susceptibility Test (Bauer, A. W., W. M. M. Kirby, J. C. Sherris, and M. Turck, 1966, Amer. J. Clin. Pathol. 45:493-496). In this test the cultures were incubated at both 37° C. or 30° C. […] 16, 1968, the heterogeneity of methicilllin-resistant S. aureus is manifested by incubation at 30° C.

`CC(=O)OCC1=C(C(=O)O)N2C(=O)C(NC(=O)CSc3ccc(F)c(Cl)c3)C2SC1` (stereo not drawn) [Example 8, 7-(3'-chloro-4-fluorophenylthioacetamido)cephalosporanic acid, sodium salt] was tested. Which zone of inhibition (culture 3055 (penicillin sensitive), 30°, read-out: disc susceptibility (zone) at 30°) did it give?
The zone of inhibition was greater than 35 mm.

What about the zone of inhibition (culture 3055 (penicillin sensitive), 37°, read-out: disc susceptibility (zone) at 37°) of the same compound?
The zone of inhibition was greater than 35 mm.

And the zone of inhibition (culture 3074 (methicillin sensitive, penicillinase producing), 30°, read-out: disc susceptibility (zone) at 30°)?
Its zone of inhibition is 36 mm.

And the zone of inhibition (culture 3074 (methicillin sensitive, penicillinase producing), 37°, read-out: disc susceptibility (zone) at 37°)?
Its zone of inhibition is 36 mm.

And the zone of inhibition (culture 3125 (methicillin resistant), 30°, read-out: disc susceptibility (zone) at 30°)?
Its zone of inhibition is 36 mm.

And the zone of inhibition (culture 3125 (methicillin resistant), 37°, read-out: disc susceptibility (zone) at 37°)?
Its zone of inhibition is 33.8 mm.

What about the zone of inhibition (culture 3130 (methicillin resistant), 30°, read-out: disc susceptibility (zone) at 30°) of the same compound?
Its zone of inhibition is 31 mm.

What about the zone of inhibition (culture 3130 (methicillin resistant), 37°, read-out: disc susceptibility (zone) at 37°) of the same compound?
The zone of inhibition was 33.2 mm.

What about the zone of inhibition (culture 3131 (methicillin resistant), 30°, read-out: disc susceptibility (zone) at 30°) of the same compound?
The zone of inhibition was 29 mm.

What about the zone of inhibition (culture 3131 (methicillin resistant), 37°, read-out: disc susceptibility (zone) at 37°) of the same compound?
The zone of inhibition was 26.6 mm.

And the zone of inhibition (culture 3132 (methicillin resistant), 30°, read-out: disc susceptibility (zone) at 30°)?
Its zone of inhibition is 28 mm.

What about the zone of inhibition (culture 3132 (methicillin resistant), 37°, read-out: disc susceptibility (zone) at 37°) of the same compound?
The zone of inhibition was 29.4 mm.

And the zone of inhibition (culture 3133 (methicillin resistant), 30°, read-out: disc susceptibility (zone) at 30°)?
The zone of inhibition was 24.8 mm.

What about the zone of inhibition (culture 3133 (methicillin resistant), 37°, read-out: disc susceptibility (zone) at 37°) of the same compound?
The zone of inhibition was 27.6 mm.

What about the zone of inhibition (culture 3134 (methicillin resistant), 30°, read-out: disc susceptibility (zone) at 30°) of the same compound?
The zone of inhibition was 27.8 mm.

What about the zone of inhibition (culture 3134 (methicillin resistant), 37°, read-out: disc susceptibility (zone) at 37°) of the same compound?
The zone of inhibition was 28 mm.

What about the zone of inhibition (culture 3135 (methicillin resistant), 30°, read-out: disc susceptibility (zone) at 30°) of the same compound?
Its zone of inhibition is 26.2 mm.

And the zone of inhibition (culture 3135 (methicillin resistant), 37°, read-out: disc susceptibility (zone) at 37°)?
The zone of inhibition was 28.2 mm.

What about the zone of inhibition (culture 3136 (methicillin resistant), 30°, read-out: disc susceptibility (zone) at 30°) of the same compound?
Its zone of inhibition is 31 mm.

What about the zone of inhibition (culture 3136 (methicillin resistant), 37°, read-out: disc susceptibility (zone) at 37°) of the same compound?
Its zone of inhibition is 35 mm.

What about the zone of inhibition (culture 3137 (methicillin resistant), 30°, read-out: disc susceptibility (zone) at 30°) of the same compound?
Its zone of inhibition is 22.1 mm.

What about the zone of inhibition (culture 3137 (methicillin resistant), 37°, read-out: disc susceptibility (zone) at 37°) of the same compound?
The zone of inhibition was 24.4 mm.

What about the zone of inhibition (culture 3138 (methicillin resistant), 30°, read-out: disc susceptibility (zone) at 30°) of the same compound?
The zone of inhibition was 25.2 mm.

What about the zone of inhibition (culture 3138 (methicillin resistant), 37°, read-out: disc susceptibility (zone) at 37°) of the same compound?
The zone of inhibition was 25.6 mm.

And the zone of inhibition (culture 3139 (methicillin resistant), 30°, read-out: disc susceptibility (zone) at 30°)?
Its zone of inhibition is 31.6 mm.

What about the zone of inhibition (culture 3139 (methicillin resistant), 37°, read-out: disc susceptibility (zone) at 37°) of the same compound?
The zone of inhibition was 34 mm.

What about the zone of inhibition (culture 3140 (methicillin resistant), 30°, read-out: disc susceptibility (zone) at 30°) of the same compound?
Its zone of inhibition is 26.4 mm.

What about the zone of inhibition (culture 3140 (methicillin resistant), 37°, read-out: disc susceptibility (zone) at 37°) of the same compound?
The zone of inhibition was 28.4 mm.

What about the zone of inhibition (culture H232 (methicillin sensitive, penicillinase producing), 30°, read-out: disc susceptibility (zone) at 30°) of the same compound?
Its zone of inhibition is 34.3 mm.

And the zone of inhibition (culture H232 (methicillin sensitive, penicillinase producing), 37°, read-out: disc susceptibility (zone) at 37°)?
Its zone of inhibition is 33.4 mm.

What about the “Change 37°-30°” value (culture 3074) of the same compound?
Its value is 0 mm.

What about the “Change 37°-30°” value (culture 3125) of the same compound?
The value was “+2.2 mm”.

What about the “Change 37°-30°” value (culture 3130) of the same compound?
The value was -2.2 mm.

And the “Change 37°-30°” value (culture 3131)?
The value was “+2.4 mm”.

And the “Change 37°-30°” value (culture 3132)?
Its value is -1.4 mm.

And the “Change 37°-30°” value (culture 3133)?
The value was -2.8 mm.

What about the “Change 37°-30°” value (culture 3134) of the same compound?
The value was -0.2 mm.

What about the “Change 37°-30°” value (culture 3135) of the same compound?
The value was -2.0 mm.

What about the “Change 37°-30°” value (culture 3136) of the same compound?
Its value is -4.0 mm.

And the “Change 37°-30°” value (culture 3137)?
Its value is -2.3 mm.

And the “Change 37°-30°” value (culture 3138)?
Its value is -0.4 mm.

What about the “Change 37°-30°” value (culture 3139) of the same compound?
The value was -2.4 mm.

What about the “Change 37°-30°” value (culture 3140) of the same compound?
The value was -2.0 mm.

And the “Change 37°-30°” value (culture H232)?
Its value is “+0.9 mm”.

What about the “effectiveness vs cephalothin in disc susceptibility test” value (incubation at 37° C. or 30° C.) of the same compound?
Its value is “more effective than cephalothin”.
